Data taken from paper PMC8760323, “Single-chain tandem macrocyclic peptides as a scaffold for growth factor and cytokine mimetics” (Communications Biology, 2022).

What was measured:
Type in all cases: cell-based, human
RTKs = assay: Phospho-RTK array; settings: 1.3 nM rhHGF or 32 nM aMD4dY-PA22, 10 min
Protocol: Ligand specificity against RTKs was evaluated using the Proteome Profiler Human Phospho-RTK Array Kit (R&D Systems). Confluent HEK293 cells in a 10 cm cell culture dish were starved in DMEM supplemented with 0.5% FBS and penicillin-streptomycin for 24 h. The starved cells were stimulated by 1.3 nM rhHGF or 32 nM aMD4dY-PA22 for 10 min, rinsed once with PBS, and lysed with 1 mL of lysis buffer 17 (R&D Systems) supplemented with a protease inhibitor cocktail (Nacalai Tesque). Lysates were analyzed using the Proteome Profiler Human Phospho-RTK Array Kit (R&D Systems) according to the manufacturer’s instructions. Chemiluminescence was detected using the Molecular Imager ChemiDoc XRS System (Bio-Rad Laboratories).

BM-hMSCs [1] = assay: Proliferation assay, BM-hMSCs (WST-8); settings: 3 days, 1.3 nM rhHGF or 32 nM aMD4dY-PA22; for WST-8 absorbance, Normalized: normalized by mock
Protocol: BM-hMSC cells at a density of 2500 cells/well were seeded on a 96-well cell culture plate with DMEM supplemented with 10% FBS with or without 1.3 nM rhHGF or 32 nM aMD4dY-PA22. After 3 days of culture in 5% CO2 at 37 °C, Cell Counting Reagent SF (Dojindo Laboratories, Japan) was added to the cells. After 1 h incubation, cell numbers were quantified by detection of absorbance at 450 nm using the Benchmark Plus plate reader (Bio-Rad Laboratories, Hercules, CA, USA).

HuCCT1 cells [2] = assay: Migration assay (Transwell); settings: 24 h, 1.3 nM rhHGF or 32 nM aMD4dY-PA22; for Relative migration: standardized by mock
Protocol: HuCCT1 cells at a density of 20,000 cells/well in RPMI 1640 medium supplemented with 0.5% FBS were added to 24-well Transwell inserts. In the lower layer, RPMI 1640 supplemented with 0.5% FBS with or without 1.3 nM rhHGF or 32 nM aMD4dY-PA22 was added. The cells were incubated for 24 h in 5% CO2 at 37 °C. The Transwell inserts were washed thrice with PBS, stained with 0.5% crystal violet (Nacalai Tesque)/methanol for 10 min, and washed with distilled water. Images of migrated cells were captured using BZ-X fluorescence microscopy (Keyence Corporation, Osaka, Japan), and cell migration levels were quantified by stained areas of the Transwell inserts.

HuCCT1 cells [3] = assay: Scratch assay (wound healing); settings: for wound healing compared with no stimulation: 0.41 nM rhHGF or 16 nM aMD4dY-PA22; for Closure rate / Wound closure: 1 to 7 h, 0.41 nM HGF or 16 nM aMD4dY-PA22
Protocol: HuCCT1 cells at a density of 50,000 cells/well in RPMI 1640 medium supplemented with 10% FBS were added to a 96-well cell culture plate and incubated overnight in 5% CO2 at 37 °C to form cellular monolayers. The centers of the cellular monolayers were scratched with 1000 μL micropipette tips and incubated in RPMI 1640 medium supplemented with 0.5% FBS with or without 0.41 nM HGF or 16 nM aMD4dY-PA22 in 5% CO2 at 37 °C. Images of the cells were captured every hour using BioStudio-T (Nikon, Tokyo, Japan). The average wound healing rate was calculated as [(width of the wound 1 h after scratching) − (width of the wound […])]/6.

HuCCT1 cells [4] = assay: Branching morphogenesis in collagen gel; settings: 7 days; 0.44 nM rhHGF or […] aMD4dY-PA22
Protocol: HuCCT1 cells at a density of 20,000 cells/well were mixed with 400 μL of ice-cold collagen-containing culture medium (DMEM/Nutrient Mixture F-12, CellMatrix type IA [Nitta Gelatin Inc., Osaka, Japan], 2.2 g/L of sodium bicarbonate, 4.77 g/L of 4-(2-hydroxyethyl)-1-piperazineethanesulfonic acid [HEPES], and 0.005 N sodium hydroxide) and incubated in a 48-well cell culture plate in 5% CO2 at 37 °C for gelation. The cells encapsulated in the collagen gel were cultured with 500 μL of RPMI 1640 medium supplemented with 10% FBS with or without 0.44 nM HGF or 6.3 nM aMD4dY-PA22 in 5% CO2 at 37 °C. The culture medium was changed every 3 days. At day 7, the cells were observed by inverted microscopy.

BM-hMSCs [5] = assay: Flow cytometry of MSC surface markers; settings: for surface marker expression of stimulated BM-hMSCs: 3 days; for CD45 Positive (%) / CD90 Positive (%): flow cytometry, Fig. S11b
Protocol: The marker expression of BM-hMSCs unstimulated or stimulated using 1.3 nM rhHGF or 32 nM aMD4dY-PA22 for 3 days were analyzed via flow cytometry. Harvested cells were blocked with PBS supplemented with Human TruStain FcX (Biolegend) for 10 min on ice. […] For the isotype controls, 1:10 diluted PE mouse IgG1 k Isotype (Biolegend) and FITC mouse IgG1 k Isotype (Biolegend) were utilized. After washing two times with a cell stain buffer, cells were analyzed using Attune NxT flow cytometer (Thermo Fisher Scientific).

BM-hMSCs [6] = assay: Cytokine array of conditioned media; settings: 3 days
Protocol: The conditioned media (supernatant) of BM-hMSCs unstimulated or stimulated with 1.3 nM rhHGF or 32 nM aMD4dY-PA22 for 3 days were filtered using Millex-GV 0.22 µm PVDF membrane filter (Millipore) and analyzed using Human Cytokine Array C5 (Ray Biotech) according to the manufacturer’s instructions. Chemiluminescence was detected using Amersham Imager 600 (Cytiva).

hPBMCs = assay: Colony-forming assay; settings: sheet Fig. 4, Fig. 4b
Protocol: Next, 1.1 mL of the mixture was seeded in a 6-well cell culture plate and cultured for 13 days in 5% CO2 at 37 °C. At day 13, colony numbers were counted, and images were taken by inverted microscopy and BZ-X fluorescence microscopy.

| Substance | selectivity against RTKs (RTKs) | growth of BM-hMSCs (BM-hMSCs [1]) | WST-8 absorbance, Normalized (BM-hMSCs [1]; N 1) | WST-8 absorbance, Normalized (BM-hMSCs [1]; N 2) | WST-8 absorbance, Normalized (BM-hMSCs [1]; N 3) | migration (HuCCT1 cells [2]) | Stained area (HuCCT1 cells [2]; n1) [μm^2] | Stained/Total (HuCCT1 cells [2]; n1) | Stained area (HuCCT1 cells [2]; n2) [μm^2] | Stained/Total (HuCCT1 cells [2]; n2) | Relative migration (HuCCT1 cells [2]; n1) | Relative migration (HuCCT1 cells [2]; n2) | wound healing compared with no stimulation (HuCCT1 cells [3]) [fold] | Closure rate (HuCCT1 cells [3]; replicate 1) [μm/h] | Wound closure (HuCCT1 cells [3]; replicate 1) [μm] | Closure rate (HuCCT1 cells [3]; replicate 2) [μm/h] | Wound closure (HuCCT1 cells [3]; replicate 2) [μm] | Closure rate (HuCCT1 cells [3]; replicate 3) [μm/h] | Wound closure (HuCCT1 cells [3]; replicate 3) [μm] | Closure rate (HuCCT1 cells [3]; replicate 4) [μm/h] | other results |
| --- | --- | --- | --- | --- | --- | --- | --- | --- | --- | --- | --- | --- | --- | --- | --- | --- | --- | --- | --- | --- | --- |
| AET - CRQFNRRTHEVWNLDCG - AAPAAPA PAAPAAPA PAAPAA PG - CRQFNRRTHEVWNLDC (bicyclic or more) [aMD4dY-PA22, HGF mimetic STaMPtide, two aMD4dY macrocycles with a 22-amino-acid PA linker, secreted by C. glutamicum] | highly Met-selective | slightly promoted proliferation | 1.155 | 1.175 | 1.237 | promoted migration of HuCCT1 cells | 1905662 | 0.07439 | 1256153 | 0.04693 | 4.415 | 2.785 | 1.8 | 104.419 | 626.514 | 110.38 | 662.279 | 95.5447 | 573.268 | 95.787 | Wound closure (HuCCT1 cells [3]; replicate 4): 574.722 μm; branching morphology (HuCCT1 cells [4]): showed branched tubular structures; surface marker expression of stimulated BM-hMSCs (BM-hMSCs [5]): expressed hMSC positive markers (CD105, CD73, CD90) and no negative markers (CD45, CD34); CD45 Positive (%) (BM-hMSCs [5]; replicate 1): 0.665%; CD90 Positive (%) (BM-hMSCs [5]; replicate 1): 99.857%; CD45 Positive (%) (BM-hMSCs [5]; replicate 2): 1.718%; CD90 Positive (%) (BM-hMSCs [5]; replicate 2): 99.76%; cytokines and growth factors in conditioned supernatant (BM-hMSCs [6]): to the same extent as unstimulated parental BM-hMSCs; Colony number (hPBMCs; N 1): 104.419; Colony number (hPBMCs; N 2): 110.38; Colony number (hPBMCs; N 3): 95.5447; Colony number (hPBMCs; N 4): 95.787 |
| rhHGF: recombinant human HGF (R&D Systems) | highly Met-selective | slightly promoted proliferation | 1.1816 | 1.335 | 1.247 | promoted migration of HuCCT1 cells | 1050763 | 0.03941 | 1394072 | 0.04835 | 2.3393 | 2.87 | 1.6 | 88.8457 | 533.074 | 100.748 | 604.487 | 98.5177 | 591.106 | 94.0632 | Wound closure (HuCCT1 cells [3]; replicate 4): 564.379 μm; branching morphology (HuCCT1 cells [4]): showed branched tubular structures; surface marker expression of stimulated BM-hMSCs (BM-hMSCs [5]): expressed hMSC positive markers (CD105, CD73, CD90) and no negative markers (CD45, CD34); CD45 Positive (%) (BM-hMSCs [5]; replicate 1): 1.409%; CD90 Positive (%) (BM-hMSCs [5]; replicate 1): 99.927%; CD45 Positive (%) (BM-hMSCs [5]; replicate 2): 1.405%; CD90 Positive (%) (BM-hMSCs [5]; replicate 2): 99.878%; cytokines and growth factors in conditioned supernatant (BM-hMSCs [6]): to the same extent as unstimulated parental BM-hMSCs; Colony number (hPBMCs; N 1): 88.8457; Colony number (hPBMCs; N 2): 100.748; Colony number (hPBMCs; N 3): 98.5177; Colony number (hPBMCs; N 4): 94.0632 |
